Literature values in patent US20050187388A1, “Method for the preparation of aryl ethers” (priority 2004, published 2005).

Experiments:
dopamine reuptake = dopamine reuptake (Homo sapiens, UniProt Q01959)
8-OH-DPAT hypothermia = settings: in vivo
serotonin reuptake = serotonin reuptake (Homo sapiens, UniProt P31645)
serotonin reuptake, sequence (P31645 whole entry): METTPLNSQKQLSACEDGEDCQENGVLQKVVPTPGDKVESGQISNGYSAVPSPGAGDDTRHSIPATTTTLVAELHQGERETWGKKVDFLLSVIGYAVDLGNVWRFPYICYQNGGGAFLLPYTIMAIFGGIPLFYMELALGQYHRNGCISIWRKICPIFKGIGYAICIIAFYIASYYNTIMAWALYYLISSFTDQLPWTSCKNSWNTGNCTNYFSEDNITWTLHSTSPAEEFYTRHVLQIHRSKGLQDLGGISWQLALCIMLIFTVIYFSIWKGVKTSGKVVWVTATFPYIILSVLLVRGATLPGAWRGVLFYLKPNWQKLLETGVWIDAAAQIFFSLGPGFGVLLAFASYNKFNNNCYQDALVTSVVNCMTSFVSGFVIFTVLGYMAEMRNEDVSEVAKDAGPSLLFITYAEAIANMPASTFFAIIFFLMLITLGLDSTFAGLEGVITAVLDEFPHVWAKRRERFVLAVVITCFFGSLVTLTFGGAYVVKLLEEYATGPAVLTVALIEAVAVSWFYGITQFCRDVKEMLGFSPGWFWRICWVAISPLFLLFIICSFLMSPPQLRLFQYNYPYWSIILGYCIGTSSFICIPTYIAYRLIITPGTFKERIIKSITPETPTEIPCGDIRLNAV

dopamine reuptake, sequence (Q01959 whole entry): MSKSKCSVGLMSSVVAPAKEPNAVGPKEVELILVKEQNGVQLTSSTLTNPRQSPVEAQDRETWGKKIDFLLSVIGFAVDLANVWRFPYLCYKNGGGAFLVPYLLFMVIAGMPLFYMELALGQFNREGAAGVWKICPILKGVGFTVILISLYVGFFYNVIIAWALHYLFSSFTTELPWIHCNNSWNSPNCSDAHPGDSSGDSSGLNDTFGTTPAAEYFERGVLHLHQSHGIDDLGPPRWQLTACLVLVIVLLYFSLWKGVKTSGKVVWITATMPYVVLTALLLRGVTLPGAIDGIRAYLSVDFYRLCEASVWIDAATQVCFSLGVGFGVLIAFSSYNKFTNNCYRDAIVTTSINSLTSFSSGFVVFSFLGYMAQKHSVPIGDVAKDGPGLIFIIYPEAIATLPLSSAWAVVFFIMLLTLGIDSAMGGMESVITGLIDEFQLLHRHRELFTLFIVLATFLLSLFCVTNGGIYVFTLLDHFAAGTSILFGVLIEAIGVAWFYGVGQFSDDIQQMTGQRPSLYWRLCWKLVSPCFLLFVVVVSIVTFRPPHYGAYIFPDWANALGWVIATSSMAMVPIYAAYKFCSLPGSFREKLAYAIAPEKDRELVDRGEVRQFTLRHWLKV

SMILES: CCOc1ccccc1O[C@@H](c1ccccc1)[C@@H]1CNCCO1 (racemic) [Reboxetine, 2-[α-(2-ethoxyphenoxy)benzyl]morpholine]
- dopamine reuptake inhibitory activity (dopamine reuptake): no dopamine reuptake inhibitory activity
- effect in the 8-OH-DPAT hypothermia test (8-OH-DPAT hypothermia): ineffective
- serotonin reuptake inhibitory activity (serotonin reuptake): only marginal
